Measurements taken from article PMC10135378, “Synthesis of Novel N-Heterocyclic Carbene-Ruthenium (II) Complexes, “Precious” Tools with Antibacterial, Anticancer and Antioxidant Properties” (Antibiotics, 2023).

Key:
MDA-MB-231 cells = assay: MTT assay, anticancer activity on MDA-MB-231 cells; format: cell-based, human; conditions: for IC50: MTT, 72 h exposure, 0.1-100 µM; for fold more active against MDA-MB-231 than MCF-10A cells: ratio of IC50 values MCF-10A / MDA-MB-231
Protocol: The anticancer activity of all the synthesized Ru-NHC complexes (RANHC I-VI) was studied in two human breast cancer cell lines, namely the estrogen receptor positive (ER+) MCF-7 cells and the triple negative MDA-MB-231 cells (ER-, PR-, and HER-2/Neu not overexpressed), and neuroblastoma cells, i.e., SH-SY5Y. First, the cells were exposed for 72 h at different concentrations of the studied complexes (from 0.1 to 100 µM) and then their viability was checked by MTT assay.
The adopted cells (breast cancer MCF-7 and MDA-MB-231 and human mammary epithelial MCF-10A cells) were purchased from American Type Culture Collection (ATCC, Manassas, VA, USA) and cultured as indicated. The mouse embryonic fibroblast BALB/3T3 and neuroblastoma SH-SY5Y were also obtained from American Type Culture Collection (ATCC, Manassas, VA, USA) and cultured in DMEM high glucose supplemented with 100 U mL^−1 penicillin/streptomycin and 10% bovine calf serum (BCS) or 10% fetal bovine serum (FBS), respectively.
MTT assay (Sigma Aldrich (St. Louis, MO, USA)) was used for the in vitro anticancer activity evaluation, as previously reported. The Ru-NHC complexes were employed at different concentrations (0.1–1–10–25–50–100 μM) for 72 h. The IC50 values were calculated from the percent (%) of control using GraphPad Prism 9 (GraphPad Software, La Jolla, CA, USA).

[1] = test system: Enterococcus faecalis (ATCC 19433); assay: MIC/MBC broth dilution, E. faecalis; format: cell-based; conditions: broth dilution, 37 °C, 18 h
Protocol: One Gram-negative (Escherichia coli (ATCC® 25922TM)) and two Gram-positive bacterial strains (Enterococcus faecalis (ATCC® 19433TM) and Staphylococcus aureus (ATCC® 23235TM)] were used for MIC and MBC values determination, according to CLSI guidelines. MIC represents the lowest concentration of compound inhibiting the visible microbial growth and expressed as μg/mL; MBC is the lowest concentration able to kill the bacteria. Both determinations were performed by the broth dilution method. Bacteria were grown overnight in LB medium (2%), then diluted to a density of […] colony forming units (CFUs) per mL, plated in sterile 96-well microplates, obtaining about 10^5 cells/ well. Increasing concentrations of the Ru-NHC complexes (1, 10, 25, 50, 70, 100 µg/mL) were used. After incubation at 37 °C for 18 h (overnight), bacterial growth was checked at a wavelength of 600 nm using a Multiskan spectrophotometer (model Multiskan Ex Microplate; Thermo Scientific, Nyon, Switzerland) and MIC or MBC values were determined, comparing cell density with a positive control (bacterial cells grown in LB medium were added with only the vehicle, DMSO). Each experiment was carried out five times, in triplicate. Ampicillin (Sigma Aldrich A9393) was used as the control for strain sensitivity.

[2] = ABTS radical scavenging assay; conditions: for IC50: 5 min, room temperature, 730 nm
Text: To further analyze the Ru-NHC complexes antiradical potential, we examined their capability to interfere with the ABTS radical cation, a well-known protonated radical with a characteristic maximal absorbance at 730 nm, which diminishes with the scavenging of the radical proton. The assay measures radical scavenging by the electron donation. The outcomes in terms of ABTS% scavenging activity are reported in Figure 7 and IC50 values of Ru-NHC complexes, together with the standard Trolox, on ABTS radical are summarized in Table 3 and Table S3.
The radical scavenging properties of the Ru-NHC complexes on a 2,2′-azino-bis(3-ethylbenzothiazoline-6-sulfonate) radical cation (ABTS^•+) were calculated as described by Fazio et al., with few adjustments. Briefly, 2 mM ABTS and 70 mM potassium persulfate water solutions were mixed and incubated to obtain ABTS^•+ radical stock solution (16 h, room temperature, in the dark). ABTS solution was diluted in ethanol to obtain an absorbance of 0.70 ± 0.02 at 730 nm, prior to use. Then, 2 μL of each Ru-NHC complex at different concentrations, properly dissolved in DMSO, were mixed with 198 μL of the ABTS^•+ solution in a 48-well plate obtaining the following concentrations: 0.1, 1, 10, 50, and 100 µg/mL. The solutions were vigorously shaken and incubated (5 min, room temperature, in the dark). The ABTS scavenging activity was determined at 730 nm, using a microplate reader. The control was prepared mixing 2 μL of DMSO with 198 μL of the ABTS^•+ solution. The ABTS radical scavenging was expressed as inhibition percentages (%IABTS) of each complex compared to the control, according to the formula: %IABTS=A0−A/A0×100 where A0 is the absorbance at 730 nm of the control reaction and A is the absorbance at 730 nm in the presence of samples.
IC50 values for the Ru complexes were calculated from the %IABTS using GraphPad Prism 9 software (GraphPad Inc., San Diego, CA, USA). Trolox was employed as the positive control.

IC50 (MDA-MB-231 cells) [µM]	IC50 [2] [µM]	ABTS IC50 fold lower than that of Trolox ([2]; IC50 ratio to Trolox)	SMILES	M.I.C. E. faecalis [1] [µg/mL]	fold more active against MDA-MB-231 than MCF-10A cells (MDA-MB-231 cells)
> 100	5.53 ± 1.1	about 17 fold	CN1C=CN2CC(c3ccccc3)[O+](C)[Ru]([Cl])=[C]12.Cc1ccc(C(C)C)cc1.F[P-](F)(F)(F)(F)F (stereo not drawn) [RANHC-III]	50	
> 100	16.1 ± 0.7		COC(Cn1ccn(C)[c]1=[Ru]([I])[I])c1ccccc1.Cc1ccc(C(C)C)cc1 (stereo not drawn) [RANHC-II]	50	
> 100	8.57 ± 1.1		COC(Cn1ccn(C)[c]1=[Ru]1[O]C(=O)C(=O)[O]1)c1ccccc1.Cc1ccc(C(C)C)cc1 (stereo not drawn) [RANHC-IV]	50	
> 100	13.5 ± 0.7		COC(Cn1ccn(C)[c]1=[Ru]([Cl])[Cl])c1ccccc1.Cc1ccc(C(C)C)cc1 (stereo not drawn) [RANHC-I]	50	
40.6 ± 1.1	17.2 ± 1.1		COC(Cn1[c](=[Ru]([Cl])[Cl])n(C)c2ccccc21)c1ccccc1.Cc1ccc(C(C)C)cc1 (stereo not drawn) [RANHC-VI]	50	2.2 fold
24.1 ± 0.7	11.4 ± 0.8		COC(Cn1c(Cl)c(Cl)n(C)[c]1=[Ru]([Cl])[Cl])c1ccccc1.Cc1ccc(C(C)C)cc1 (stereo not drawn) [RANHC-V]	70	about 3.3 fold
